The source made the active and inactive calls.
How the values were obtained:
[1] = biological target: Cystic fibrosis transmembrane conductance regulator/Golgi-associated PDZ and coiled-coil motif-containing protein (Homo sapiens, UniProt P13569+Q9HD26); assay: potency against CAL PDZ-peptide interaction – biochemical, fluorescence polarization, Cerulean-tagged CAL PDZ, cherry-picks, dose response (AID 504773)
[2] = biological target: T1, Protein RecA (Mycobacterium tuberculosis, UniProt P9WHJ3); assay: Fluorescence Cell-Free Homogeneous Dose Retest to Identify Inhibitors of RecA-Intein Splicing Activity. [Related pubchem assays (depositor defined):AID2097, AID2223, AID489010, AID492950]; assay type: functional
T1 sequence (P9WHJ3 whole entry): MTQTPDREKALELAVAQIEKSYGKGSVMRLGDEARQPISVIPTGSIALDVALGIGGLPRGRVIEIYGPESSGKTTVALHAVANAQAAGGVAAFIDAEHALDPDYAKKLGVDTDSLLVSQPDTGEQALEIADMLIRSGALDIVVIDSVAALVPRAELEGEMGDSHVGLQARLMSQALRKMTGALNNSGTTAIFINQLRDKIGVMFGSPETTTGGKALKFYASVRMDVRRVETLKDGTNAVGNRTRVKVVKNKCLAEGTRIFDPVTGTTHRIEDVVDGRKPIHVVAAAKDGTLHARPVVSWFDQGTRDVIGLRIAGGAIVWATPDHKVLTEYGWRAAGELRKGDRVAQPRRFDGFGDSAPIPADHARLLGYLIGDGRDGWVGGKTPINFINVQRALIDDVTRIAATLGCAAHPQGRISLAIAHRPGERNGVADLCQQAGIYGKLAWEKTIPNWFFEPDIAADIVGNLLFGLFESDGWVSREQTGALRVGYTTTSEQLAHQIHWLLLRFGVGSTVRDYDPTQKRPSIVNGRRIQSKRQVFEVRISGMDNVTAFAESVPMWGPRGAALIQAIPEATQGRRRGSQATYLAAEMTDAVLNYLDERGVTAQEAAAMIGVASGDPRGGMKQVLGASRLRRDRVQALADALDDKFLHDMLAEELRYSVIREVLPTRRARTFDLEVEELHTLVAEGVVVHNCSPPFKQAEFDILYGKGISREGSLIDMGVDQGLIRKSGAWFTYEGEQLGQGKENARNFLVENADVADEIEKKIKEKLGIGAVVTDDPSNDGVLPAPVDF

[3] = biological target: T2, Replicative DNA helicase DnaB (Mycobacterium tuberculosis, UniProt P9WMR3); assay: DnaB intein splicing inhibitors, dose response, biochemical, cell-free fluorescence (AID 449749); assay type: functional
T2 sequence (P9WMR3 whole entry): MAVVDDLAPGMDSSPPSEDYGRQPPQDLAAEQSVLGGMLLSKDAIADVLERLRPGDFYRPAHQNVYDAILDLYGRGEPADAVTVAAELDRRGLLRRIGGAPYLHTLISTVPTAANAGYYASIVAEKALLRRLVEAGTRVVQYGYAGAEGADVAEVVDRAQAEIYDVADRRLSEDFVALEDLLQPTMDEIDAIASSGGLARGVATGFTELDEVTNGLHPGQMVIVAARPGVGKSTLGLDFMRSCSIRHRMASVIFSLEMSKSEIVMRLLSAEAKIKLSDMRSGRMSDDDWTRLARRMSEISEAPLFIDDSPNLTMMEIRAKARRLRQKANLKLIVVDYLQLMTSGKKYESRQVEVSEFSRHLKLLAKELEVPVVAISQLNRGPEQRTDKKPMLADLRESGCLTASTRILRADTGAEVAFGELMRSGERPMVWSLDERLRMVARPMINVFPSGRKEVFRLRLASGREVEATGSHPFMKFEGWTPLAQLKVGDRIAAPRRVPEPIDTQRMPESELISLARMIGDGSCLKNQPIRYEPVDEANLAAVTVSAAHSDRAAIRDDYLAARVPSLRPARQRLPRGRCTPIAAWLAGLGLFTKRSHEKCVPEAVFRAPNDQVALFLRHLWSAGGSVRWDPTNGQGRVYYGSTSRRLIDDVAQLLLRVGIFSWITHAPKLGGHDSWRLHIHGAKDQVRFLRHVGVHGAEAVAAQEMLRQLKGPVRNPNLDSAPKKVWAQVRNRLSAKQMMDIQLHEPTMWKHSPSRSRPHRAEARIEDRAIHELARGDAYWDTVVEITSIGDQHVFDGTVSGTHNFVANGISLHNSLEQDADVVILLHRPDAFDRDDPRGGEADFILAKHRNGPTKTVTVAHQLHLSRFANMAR

[4] = biological target: Eukaryotic translation initiation factor 4E (Mus musculus, UniProt P63073); assay: blockers of eIF4G binding by eIF4E – biochemical, TR-FRET, dose response (AID 855); assay type: functional;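 further: potency for disrupting eIF4E binding to eIF4GI seen as loss of FRET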
[5] = biological target: T3, Hexokinase HKDC1 (Homo sapiens, UniProt Q2TB90); assay: inhibition of HKDC1 glucose phosphorylation – biochemical, W721R variant, dose response (AID 504729); assay type: functional
T3 sequence (Q2TB90 whole entry): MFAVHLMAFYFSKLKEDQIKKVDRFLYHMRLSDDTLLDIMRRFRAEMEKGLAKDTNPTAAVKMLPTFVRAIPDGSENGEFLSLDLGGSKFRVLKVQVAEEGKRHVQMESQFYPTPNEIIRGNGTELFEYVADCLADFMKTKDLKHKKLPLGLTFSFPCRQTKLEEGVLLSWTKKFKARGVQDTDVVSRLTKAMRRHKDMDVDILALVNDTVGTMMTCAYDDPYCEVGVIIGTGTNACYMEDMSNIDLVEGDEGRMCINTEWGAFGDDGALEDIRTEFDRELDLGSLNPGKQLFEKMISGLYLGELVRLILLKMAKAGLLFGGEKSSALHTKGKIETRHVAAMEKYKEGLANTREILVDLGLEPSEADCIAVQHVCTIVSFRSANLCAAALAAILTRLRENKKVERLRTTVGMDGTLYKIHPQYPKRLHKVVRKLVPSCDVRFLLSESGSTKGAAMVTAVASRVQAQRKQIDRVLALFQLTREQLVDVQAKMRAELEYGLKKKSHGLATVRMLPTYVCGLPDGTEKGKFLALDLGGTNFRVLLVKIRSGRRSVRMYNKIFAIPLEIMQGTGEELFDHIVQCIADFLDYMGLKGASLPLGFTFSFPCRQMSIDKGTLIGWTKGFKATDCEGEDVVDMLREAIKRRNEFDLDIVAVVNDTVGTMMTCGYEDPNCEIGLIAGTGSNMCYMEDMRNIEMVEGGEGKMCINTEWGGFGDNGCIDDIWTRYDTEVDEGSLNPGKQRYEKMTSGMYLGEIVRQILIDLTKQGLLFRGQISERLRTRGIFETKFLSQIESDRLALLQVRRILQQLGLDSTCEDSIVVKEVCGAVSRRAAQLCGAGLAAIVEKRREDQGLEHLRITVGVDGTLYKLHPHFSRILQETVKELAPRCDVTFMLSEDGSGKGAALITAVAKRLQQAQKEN

[6] = blockers of CAL PDZ ligand groove binding – biochemical, fluorescence polarization, untagged CAL PDZ, cherry-pick, dose response (AID 602267); assay type: functional

Cystic fibrosis transmembrane conductance regulator/Golgi-associated PDZ and coiled-coil motif-containing protein, sequence (P13569 whole entry, other chains not shown): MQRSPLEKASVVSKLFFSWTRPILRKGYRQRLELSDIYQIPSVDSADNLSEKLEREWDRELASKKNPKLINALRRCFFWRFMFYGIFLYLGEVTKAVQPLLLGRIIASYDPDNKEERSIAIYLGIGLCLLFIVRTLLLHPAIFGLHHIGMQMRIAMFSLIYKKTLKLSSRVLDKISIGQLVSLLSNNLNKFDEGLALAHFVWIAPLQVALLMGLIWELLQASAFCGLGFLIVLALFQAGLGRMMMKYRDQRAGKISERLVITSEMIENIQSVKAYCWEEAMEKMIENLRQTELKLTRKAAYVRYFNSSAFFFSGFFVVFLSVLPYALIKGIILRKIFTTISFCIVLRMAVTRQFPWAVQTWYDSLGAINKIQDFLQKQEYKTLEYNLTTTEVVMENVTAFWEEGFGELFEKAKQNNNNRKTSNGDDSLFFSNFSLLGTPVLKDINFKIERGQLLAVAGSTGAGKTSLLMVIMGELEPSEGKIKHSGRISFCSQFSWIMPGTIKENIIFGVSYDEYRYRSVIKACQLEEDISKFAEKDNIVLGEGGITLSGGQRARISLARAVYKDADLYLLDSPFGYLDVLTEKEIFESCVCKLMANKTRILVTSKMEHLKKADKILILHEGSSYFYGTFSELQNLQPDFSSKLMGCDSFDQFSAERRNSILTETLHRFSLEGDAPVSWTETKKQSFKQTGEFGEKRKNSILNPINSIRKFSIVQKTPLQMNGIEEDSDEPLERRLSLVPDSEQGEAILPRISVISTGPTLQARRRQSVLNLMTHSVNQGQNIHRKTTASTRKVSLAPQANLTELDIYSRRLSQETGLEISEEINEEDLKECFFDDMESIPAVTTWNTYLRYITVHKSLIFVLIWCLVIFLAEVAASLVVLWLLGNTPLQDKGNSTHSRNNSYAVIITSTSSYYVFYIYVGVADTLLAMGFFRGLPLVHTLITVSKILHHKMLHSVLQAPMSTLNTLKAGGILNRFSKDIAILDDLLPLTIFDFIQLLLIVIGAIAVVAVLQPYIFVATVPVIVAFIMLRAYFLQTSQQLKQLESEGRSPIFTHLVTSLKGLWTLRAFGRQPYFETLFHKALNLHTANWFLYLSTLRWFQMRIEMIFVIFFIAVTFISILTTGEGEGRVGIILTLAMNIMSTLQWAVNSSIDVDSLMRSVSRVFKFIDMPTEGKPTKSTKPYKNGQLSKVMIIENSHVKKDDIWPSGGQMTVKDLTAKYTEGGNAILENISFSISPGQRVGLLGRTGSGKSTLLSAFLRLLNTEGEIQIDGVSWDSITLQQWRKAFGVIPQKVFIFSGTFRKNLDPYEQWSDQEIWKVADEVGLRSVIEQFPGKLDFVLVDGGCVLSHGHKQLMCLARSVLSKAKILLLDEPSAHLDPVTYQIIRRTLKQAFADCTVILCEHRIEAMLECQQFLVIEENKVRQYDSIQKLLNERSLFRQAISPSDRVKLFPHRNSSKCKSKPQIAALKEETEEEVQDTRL
Eukaryotic translation initiation factor 4E, sequence (P63073 whole entry): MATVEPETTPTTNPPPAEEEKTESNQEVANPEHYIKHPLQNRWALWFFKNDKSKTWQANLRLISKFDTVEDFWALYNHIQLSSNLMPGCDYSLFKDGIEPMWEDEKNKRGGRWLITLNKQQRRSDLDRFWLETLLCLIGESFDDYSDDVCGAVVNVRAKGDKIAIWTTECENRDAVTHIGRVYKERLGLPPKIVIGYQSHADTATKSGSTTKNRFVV

O=c1c2ccccc2nc2n1CCC2 [DEOXYVASICINONE]
active: AC50 [1] 21.3 µM | EC50 [2] 11.6 µM | AC50 [3] 13.3 µM | IC50 [4] 6.2 µM | IC50 [5] 4.32 µM | AC50 [6] 60.4 µM
